# Experimental data: PubChem BioAssay AID1963447 (Molecular Pharmacology Branch, DTP, NCI, 2024)
# Tested on: 885512-296-R-J2-PDC complex spheroid growth, % test/control
# Assay: Anticancer human tumor 885512-296-R-J2-PDC patient-derived breast carcinoma cell line growth inhibition [Asc]
# Settings: for IC50: curve of first compound; for viability, T/C: stronger effect = lower value
# Method: Multicellular complex tumor spheroid response to apoptosis pathway targeting inhibitors Alrizomadlin, Pelcitoclax, and Dasminapant in combination with a variety of drugs and investigational agents in selected tumor cell lines
# The MDM2 inhibitor alrizomadlin, the Bcl-2/Bcl-xL inhibitor pelcitoclax, and the IAPs inhibitor dasminapant were evaluated both individually and in combination with standard of care and investigational anticancer small molecules within a complex spheroid model of solid tumors. . Complex spheroids include a stromal component modeled by human endothelial cells (HUVEC) and fibroblasts modeled by human mesenchymal stem cells (MSCs). The concentration ranges selected for each drug and investigational agent were based upon clinically achievable concentrations if the clinical Cmax of the agent was known.
# Compounds. The drugs and investigational agents: alrizomadlin (APG-115; NSC831270), pelcitoclax (APG-1252; NSC835773), dasminapant (APG-1387;NSC834197), TAK-243 (NSC785004), copanlisib (NSC809693), olaparib (NSC753686), talazoparib (NSC767125), cobimetinib (NSC 768068), eltanexor (KPT-8602, NSC 794443), abemaciclib (NSC 768073), sotorasib (NSC818433), adagrasib (NSC 831453), MRTX-1133 (NSC 836407), Iadademestat (ORY1001, NSC 806812), and RMC-4630 (NSC839698), were obtained from the NCI Developmental Therapeutics Program Chemical Repository. The FDA-approved anticancer drug set is available from the Developmental Therapeutics Program at https://dtp.cancer.gov/organization/dscb/obtaining/available plates.htm. […] The stock solutions were prepared in dimethyl sulfoxide (DMSO, Sigma-Aldrich, St. Louis, MO, cat. D2650) at 800-fold the tested concentration and stored at -70 degrees C prior to their use. All drugs and investigational agents were tested over a range starting from a high concentration at or near the clinical Cmax and decreasing in half-log increments. If the clinical Cmax for an agent had not been determined, the highest concentration tested was 10 microM.
# The patient-derived cancer (PDC) cell lines include five colon adenocarcinomas: 186277-243-T-J2-PDC, 616215-338-R-J1-PDC, 439559-082-T-J2-PDC, 463943-066-T-J2-PDC, and 519858-162-T-J1-PDC; three pancreatic carcinomas: 323965-272-R-J2-PDC, 521955-158-R6-J3-PDC, and 521955-158-R2-J5-PDC; two uterine sarcomas: 327498-152-R-J2-PDC and 993429-296-R-J1-PDC; two rhabdomyosarcomas: 755483-174-R-J1-PDC and 772245-204-R-J1-PDC; two soft tissue sarcomas: 126254-015-R-J1-PDC and 494315-158-R-J1-PDC; two malignant fibrous histiocytomas: 317291-083-R-J1-PDC and 596521-263-R-J1-PDC; two breast carcinomas: 171881-019-R-J1-PDC and 885512-296-R-J2-PDC; and one ovarian carcinoma: 6556581-035-R-J-PDC were obtained from the NCI PDMR, (https://pdmr.cancer.gov). The established cell lines HSSY-2 synovial sarcoma (RRID:CVCL 8719), SYO-1 synovial sarcoma (RRID:CVCL_7146), MPNST malignant peripheral neural sheath tumor were obtained from the Sloan Kettering Institute. The following established cell lines were purchased from the American Type Culture Collection (ATCC, Manassas, VA), Sor the received from the NCI repository:, PANC-1 pancreatic carcinoma (CRL-1469, RRID:CVCL_0480), OVCAR-5 ovarian carcinoma (RRID:CVCL_1628), OVCAR-8 ovarian carcinoma (RRID:CVCL_1629), , MCF-7 breast carcinoma (CRL-12584, RRID:CVCL_0031), MDA-MB-231 breast carcinoma (CRL-12532, RRID:CVCL_0062), NCI-H1876 small cell lung carcinoma (CRL-5902, RRID:CVCL_1503), NCI-H510A small cell lung carcinoma (HTB-184, RRID:CVCL_1565), NCI-H1417 (CRL-5869, RRID:CVCL_1469), and NCI-H196 small cell lung carcinoma (CRL-5823, RRID:CVCL_1509). Dr. Peter Houghton (Greehey Children's Cancer Research Institute, University of Texas Health Science Center, San Antonio, TX) provided Rh-18 rhabdomyosarcoma (RRID:CVCL_1659). Pooled donor human umbilical vein endothelial cells (HUVEC, Lonza, cat. CC-2519) and human mesenchymal stem cells (hMSC, Lonza, cat. PT-2501) were purchased from Lonza (Walkersville, MD).
# Cell Culture. […]
# 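Note: spheroids exposed to compounds for seven days.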
# 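Throughout, for viability, T/C: 100% = DMSO vehicle control wells.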
structure (smiles),measurement,setting,value
CNC(C)C(=O)NC1CN(S(=O)(=O)c2cccc(S(=O)(=O)N3CCC4CCC(C(=O)NC(c5ccccc5)c5ccccc5)N4C(=O)C(NC(=O)C(C)NC)C3)c2)CCC2CCC(C(=O)NC(c3ccccc3)c3ccccc3)N2C1=O (stereo not given) + Cc1c(S(C)(=O)=O)c(-c2cc(F)cc(N3CCN(c4ccc(NS(=O)(=O)c5ccc(NC(CCN6CCC(C(=O)OCCCP(=O)(O)O)CC6)CSc6ccccc6)c(S(=O)(=O)C(F)(F)F)c5)cc4)CC3)c2)c(-c2ccc(Cl)cc2)n1C(C)C,IC50,second compound 0.1 µM,> 1000 nM
same,IC50,second compound 0.316 µM,> 1000 nM
same,IC50,second compound 1 µM,> 1000 nM
same,IC50,second compound 3.16 µM,> 1000 nM
same,IC50,second compound 10 µM,> 1000 nM
same,"viability, T/C","second compound 0.1 µM, first compound 0.00316 µM",78.5%
same,"viability, T/C","second compound 0.1 µM, first compound 0.01 µM",89.6%
same,"viability, T/C","second compound 0.1 µM, first compound 0.0316 µM",89.2%
same,"viability, T/C","second compound 0.1 µM, first compound 0.1 µM",101%
same,"viability, T/C","second compound 0.1 µM, first compound 0.316 µM",116%
same,"viability, T/C","second compound 0.1 µM, first compound 1 µM",88.8%
same,"viability, T/C","second compound 0.316 µM, first compound 0.00316 µM",80.1%
same,"viability, T/C","second compound 0.316 µM, first compound 0.01 µM",92.6%
same,"viability, T/C","second compound 0.316 µM, first compound 0.0316 µM",107%
same,"viability, T/C","second compound 0.316 µM, first compound 0.1 µM",93.5%
same,"viability, T/C","second compound 0.316 µM, first compound 0.316 µM",106%
same,"viability, T/C","second compound 0.316 µM, first compound 1 µM",109%
same,"viability, T/C","second compound 1 µM, first compound 0.00316 µM",90%
same,"viability, T/C","second compound 1 µM, first compound 0.01 µM",100%
same,"viability, T/C","second compound 1 µM, first compound 0.0316 µM",112%
same,"viability, T/C","second compound 1 µM, first compound 0.1 µM",102%
same,"viability, T/C","second compound 1 µM, first compound 0.316 µM",107%
same,"viability, T/C","second compound 1 µM, first compound 1 µM",109%
same,"viability, T/C","second compound 3.16 µM, first compound 0.00316 µM",94.7%
same,"viability, T/C","second compound 3.16 µM, first compound 0.01 µM",92.7%
same,"viability, T/C","second compound 3.16 µM, first compound 0.0316 µM",99.2%
same,"viability, T/C","second compound 3.16 µM, first compound 0.1 µM",102%
same,"viability, T/C","second compound 3.16 µM, first compound 0.316 µM",112%
same,"viability, T/C","second compound 3.16 µM, first compound 1 µM",95.2%
same,"viability, T/C","second compound 10 µM, first compound 0.00316 µM",112%
same,"viability, T/C","second compound 10 µM, first compound 0.01 µM",103%
same,"viability, T/C","second compound 10 µM, first compound 0.0316 µM",91.5%
same,"viability, T/C","second compound 10 µM, first compound 0.1 µM",98%
same,"viability, T/C","second compound 10 µM, first compound 0.316 µM",100%
same,"viability, T/C","second compound 10 µM, first compound 1 µM",105%
NC1CCC(NC2CC2c2ccccc2)CC1 (stereo not given) + CCN1C(C(=O)NC23CCC(C(=O)O)(CC2)CC3)C(c2cccc(Cl)c2F)C2(C(=O)Nc3cc(Cl)ccc32)C12CCCCC2,IC50,second compound 0.03 µM,> 100 nM
same,IC50,second compound 0.0949 µM,> 100 nM
same,IC50,second compound 0.3 µM,> 100 nM
same,IC50,second compound 0.949 µM,> 100 nM
same,IC50,second compound 3 µM,> 100 nM
same,"viability, T/C","second compound 0.03 µM, first compound 0.000316 µM",116%
same,"viability, T/C","second compound 0.03 µM, first compound 0.001 µM",129%
same,"viability, T/C","second compound 0.03 µM, first compound 0.00316 µM",120%
same,"viability, T/C","second compound 0.03 µM, first compound 0.01 µM",123%
same,"viability, T/C","second compound 0.03 µM, first compound 0.0316 µM",125%
same,"viability, T/C","second compound 0.03 µM, first compound 0.1 µM",118%
same,"viability, T/C","second compound 0.0949 µM, first compound 0.000316 µM",117%
same,"viability, T/C","second compound 0.0949 µM, first compound 0.001 µM",123%
same,"viability, T/C","second compound 0.0949 µM, first compound 0.00316 µM",127%
same,"viability, T/C","second compound 0.0949 µM, first compound 0.01 µM",114%
same,"viability, T/C","second compound 0.0949 µM, first compound 0.0316 µM",124%
same,"viability, T/C","second compound 0.0949 µM, first compound 0.1 µM",119%
same,"viability, T/C","second compound 0.3 µM, first compound 0.000316 µM",108%
same,"viability, T/C","second compound 0.3 µM, first compound 0.001 µM",116%
same,"viability, T/C","second compound 0.3 µM, first compound 0.00316 µM",118%
same,"viability, T/C","second compound 0.3 µM, first compound 0.01 µM",108%
same,"viability, T/C","second compound 0.3 µM, first compound 0.0316 µM",118%
same,"viability, T/C","second compound 0.3 µM, first compound 0.1 µM",118%
same,"viability, T/C","second compound 0.949 µM, first compound 0.000316 µM",99.8%
same,"viability, T/C","second compound 0.949 µM, first compound 0.001 µM",102%
same,"viability, T/C","second compound 0.949 µM, first compound 0.00316 µM",104%
same,"viability, T/C","second compound 0.949 µM, first compound 0.01 µM",99.7%
same,"viability, T/C","second compound 0.949 µM, first compound 0.0316 µM",103%
same,"viability, T/C","second compound 0.949 µM, first compound 0.1 µM",104%
same,"viability, T/C","second compound 3 µM, first compound 0.000316 µM",66.5%
same,"viability, T/C","second compound 3 µM, first compound 0.001 µM",62.2%
same,"viability, T/C","second compound 3 µM, first compound 0.00316 µM",62.2%
same,"viability, T/C","second compound 3 µM, first compound 0.01 µM",70.7%
same,"viability, T/C","second compound 3 µM, first compound 0.0316 µM",71.4%
same,"viability, T/C","second compound 3 µM, first compound 0.1 µM",74.8%
